Key:
non-fungal NAHA activity = assay: NAHA activity assay, non-fungal sources overall; assay type: biochemical
Protocol: (§1) In order to determine NAHA activity in different samples, the technology in WO 98/033934 was employed: A sample containing a dried or freeze dried organism is added to a buffer solution containing 4-Methylumbelliferyl N-acetyl-β-D-glucosaminide in a concentration of 20 μM. The reaction-time is varied depending on the ambient temperature and according to a reaction-time/temperature data sheet previously developed for fungal NAHA activity at various temperatures, and is 30 minutes at 23° C. The resulting fluorescence formed during the reaction time is monitored in a calibrated fluorometer.
(§2) Experiments were conducted where varying concentrations of AgNO3 was added to an analysis substrate. Furthermore, the experiments where performed on dried or freeze dried materials where both intact and fragmented cells are to be expected to be present.
(§3) Experiments analogous to those in example 1 were carried out, but instead of using non-specific inhibitors, the effect of different concentrations of DNJNAc on the NAHA activity in various biomass containing samples was investigated.

fungal NAHA activity = assay: NAHA activity assay, fungal sources overall; assay type: biochemical, fungi
Protocol: as §1, §2, §3
The experiments were performed with whole cell/organism cultures rather than purified enzyme, which is normally used in experiments on specific inhibition. It is plausible, though, that the surprising non-specific inhibition effect observed for Ag^+ and Hg^+ could be due to the inhibitors being delayed in physically contacting the NAHA enzyme in the fungi when compared to other types of biomass.

[1] = system: NAHA activity from all sources; assay: NAHA activity assay, all sources; assay type: biochemical; conditions: 500 μM
Protocol: as §1

[2] = system: NAHA activity from Aureobasidium pullulans; assay: NAHA activity assay, Aureobasidium pullulans; assay type: biochemical
Protocol: as §1, §2, §3

[3] = system: NAHA activity from Dermatophagoides pteronyssinus (Dust mite); assay: NAHA activity assay, dust mite; assay type: biochemical; conditions: Dermatophagoides pteronyssinus (Dust mite), 30 min
Protocol: as §1, §2, §3

[4] = system: NAHA activity from Stachybotrys chartarum; assay: NAHA activity assay, Stachybotrys chartarum; assay type: biochemical
Protocol: as §1, §2, §3

[5] = system: NAHA activity from Lepidoglyphus destructor (Storage mite); assay: NAHA activity assay, storage mite; assay type: biochemical; conditions: for NAHA activity, control without Ag+ = 100%: Lepidoglyphus destructor (Storage mite), 30 min
Protocol: as §1, §2, §3

[6] = system: NAHA activity from Grass pollen; assay: NAHA activity assay, grass pollen; assay type: biochemical; conditions: for NAHA activity, control without Ag+ = 100%: Grass pollen, 30 min
Protocol: as §1, §2, §3

[7] = system: NAHA activity from Acremonium spp.; assay: NAHA activity assay, Acremonium spp.; assay type: biochemical; conditions: Acremonium spp.
Protocol: as §1, §2, §3

[8] = system: NAHA activity from Penicillium crysogenum; assay: NAHA activity assay, Penicillium crysogenum; assay type: biochemical; conditions: Penicillium crysogenum
Protocol: as §1, §2, §3

[9] = system: NAHA activity from Ambrosia psilostachya (Rag weed pollen); assay: NAHA activity assay, rag weed pollen; assay type: biochemical; conditions: 30 min
Protocol: as §1, §2, §3

[10] = system: NAHA activity from Mugworth pollen; assay: NAHA activity assay, mugworth pollen; assay type: biochemical; conditions: 30 min
Protocol: as §1, §2, §3

[11] = system: NAHA activity from Cladosporium sphaerospermum; assay: NAHA activity assay, Cladosporium sphaerospermum; assay type: biochemical; conditions: Cladosporium sphaerospermum
Protocol: as §1, §2, §3

[12] = system: NAHA activity from Human skin cells; assay: NAHA activity assay, human skin cells; assay type: biochemical; conditions: 30 min
Protocol: as §1, §2, §3

[13] = system: NAHA activity from Mucor hiemalis; assay: NAHA activity assay, Mucor hiemalis; assay type: biochemical
Protocol: as §1, §2, §3

[14] = system: NAHA activity in Cladosporium spp.; assay: NAHA activity pilot experiment, Cladosporium spp.; assay type: biochemical; conditions: 10 μM
Protocol: as §1

[15] = system: NAHA activity from Birch pollen; assay: NAHA activity assay, birch pollen; assay type: biochemical; conditions: Birch pollen, 30 min
Protocol: as §1, §2, §3

[16] = system: NAHA activity in Alternaria spp.; assay: NAHA activity pilot experiment, Alternaria spp.; assay type: biochemical; conditions: 10 μM
Protocol: as §1

[17] = system: NAHA activity from Graham-flour; assay: NAHA activity assay (4-methylumbelliferyl N-acetyl-β-D-glucosaminide, fluorescence), Graham-flour; assay type: biochemical; conditions: Graham-flour, 30 min
Protocol: as §1, §2, §3

[18] = system: NAHA activity from Fusarium culmorum; assay: NAHA activity assay, Fusarium culmorum; assay type: biochemical
Protocol: as §1, §2, §3

[19] = system: NAHA activity from Aspergillus fumigatus fresh from cultivation; assay: NAHA activity assay, Aspergillus fumigatus fresh from cultivation; assay type: biochemical
Protocol: as §1, §2

[20] = system: NAHA activity from Aspergillus fumigatus freeze dried; assay: NAHA activity assay, Aspergillus fumigatus freeze dried; assay type: biochemical; conditions: Aspergillus fumigatus freeze dried
Protocol: as §1, §2, §3

[21] = system: NAHA activity from Cat dander; assay: NAHA activity assay, cat dander; assay type: biochemical; conditions: 30 min
Protocol: as §1, §2, §3

In the case of `[Hg+]` [Hg^+], the “inhibition of non-fungal NAHA activity” value (non-fungal NAHA activity; 10 μM) is reported as “high inhibition” and the “inhibition of fungal NAHA activity” value (fungal NAHA activity; 10 μM) is reported as “less inhibition (but more than Ag^+)”.

For `[Cu+2]` [Cu^2+], the “inhibiting effect on NAHA activity from all sources” value [1] was “did not exhibit any or exhibited only very slight inhibiting effect”.

In the case of `O=[N+]([O-])[O-].[Ag+]` [Ag+, AgNO3], the “NAHA activity, 0 μM Ag+ = 100%” value ([2]; Ag+ 10 μM) is reported as 89%, the “NAHA activity, 0 μM Ag+ = 100%” value ([2]; Ag+ 25 μM) is reported as 91% and the “NAHA activity, 0 μM Ag+ = 100%” value ([2]; Ag+ 100 μM) is reported as 96%. For the same compound, the “NAHA activity, 0 μM Ag+ = 100%” value ([2]; Ag+ 400 μM) was 76%, the “NAHA activity, control without Ag+ = 100%” value ([3]; Ag+ 10 μM) was 80% and the “NAHA activity, control without Ag+ = 100%” value ([3]; Ag+ 25 μM) was 57%. The “NAHA activity, control without Ag+ = 100%” value ([3]; Ag+ 100 μM) was 13%, the “NAHA activity, control without Ag+ = 100%” value ([3]; Ag+ 400 μM) was 6% and the “NAHA activity, 0 μM Ag+ = 100%” value ([4]; Ag+ 10 μM) was 97%. For the same compound, the “NAHA activity, 0 μM Ag+ = 100%” value ([4]; Ag+ 25 μM) was 91%, the “NAHA activity, 0 μM Ag+ = 100%” value ([4]; Ag+ 100 μM) was 83% and the “NAHA activity, 0 μM Ag+ = 100%” value ([4]; Ag+ 400 μM) was 93%. The “NAHA activity, control without Ag+ = 100%” value ([5]; Ag+ 10 μM) was 3%, the “NAHA activity, control without Ag+ = 100%” value ([5]; Ag+ 25 μM) was 2% and the “NAHA activity, control without Ag+ = 100%” value ([5]; Ag+ 100 μM) was 1%. The “NAHA activity, control without Ag+ = 100%” value ([5]; Ag+ 400 μM) was 0%, the “inhibition of NAHA activity” value ([5]; pilot experiment, 10 μM, mite Lepidoglyphus) was “almost total inhibition” and the “NAHA activity, control without Ag+ = 100%” value ([6]; Ag+ 10 μM) was 41%. For the same compound, the “NAHA activity, control without Ag+ = 100%” value ([6]; Ag+ 25 μM) was 22%, the “NAHA activity, control without Ag+ = 100%” value ([6]; Ag+ 100 μM) was 6% and the “NAHA activity, control without Ag+ = 100%” value ([6]; Ag+ 400 μM) was 8%. The “inhibition of NAHA activity” value ([6]; pilot experiment, 10 μM, grass pollen) was “almost total inhibition”, the “NAHA activity, 0 μM Ag+ = 100%” value ([7]; Ag+ 10 μM) was 175% and the “NAHA activity, 0 μM Ag+ = 100%” value ([7]; Ag+ 25 μM) was 143%. For the same compound, the “NAHA activity, 0 μM Ag+ = 100%” value ([7]; Ag+ 100 μM) was 159%, the “NAHA activity, 0 μM Ag+ = 100%” value ([7]; Ag+ 400 μM) was 132% and the “effect on the NAHA activity” value ([7]; pilot experiment, 10 μM) was “no significant effect”. For the same compound, the “NAHA activity, 0 μM Ag+ = 100%” value ([8]; Ag+ 10 μM) was 98%, the “NAHA activity, 0 μM Ag+ = 100%” value ([8]; Ag+ 25 μM) was 106% and the “NAHA activity, 0 μM Ag+ = 100%” value ([8]; Ag+ 100 μM) was 87%. The “NAHA activity, 0 μM Ag+ = 100%” value ([8]; Ag+ 400 μM) was 65%, the “NAHA activity, control without Ag+ = 100%” value ([9]; Ag+ 10 μM) was 69% and the “NAHA activity, control without Ag+ = 100%” value ([9]; Ag+ 25 μM) was 55%. For the same compound, the “NAHA activity, control without Ag+ = 100%” value ([9]; Ag+ 100 μM) was 19%, the “NAHA activity, control without Ag+ = 100%” value ([9]; Ag+ 400 μM) was 17% and the “NAHA activity, control without Ag+ = 100%” value ([10]; Ag+ 10 μM) was 46%. The “NAHA activity, control without Ag+ = 100%” value ([10]; Ag+ 25 μM) was 23%, the “NAHA activity, control without Ag+ = 100%” value ([10]; Ag+ 100 μM) was 9% and the “NAHA activity, control without Ag+ = 100%” value ([10]; Ag+ 400 μM) was 8%. For the same compound, the “NAHA activity, 0 μM Ag+ = 100%” value ([11]; Ag+ 10 μM) was 212%, the “NAHA activity, 0 μM Ag+ = 100%” value ([11]; Ag+ 25 μM) was 154% and the “NAHA activity, 0 μM Ag+ = 100%” value ([11]; Ag+ 100 μM) was 137%. For the same compound, the “NAHA activity, 0 μM Ag+ = 100%” value ([11]; Ag+ 400 μM) was 167%, the “reduction of the non-fungal NAHA activity, on average” value (non-fungal NAHA activity; 100 μM in the assay substrate) was 82% and the “NAHA activity retained, average of non-fungal sources, of the control” value (non-fungal NAHA activity; 400 μM) was 13%. For the same compound, the “NAHA activity, control without Ag+ = 100%” value ([12]; Ag+ 10 μM) was 67%, the “NAHA activity, control without Ag+ = 100%” value ([12]; Ag+ 25 μM) was 65% and the “NAHA activity, control without Ag+ = 100%” value ([12]; Ag+ 100 μM) was 63%. The “NAHA activity, control without Ag+ = 100%” value ([12]; Ag+ 400 μM) was 46%, the “NAHA activity, 0 μM Ag+ = 100%” value ([13]; Ag+ 10 μM) was 88% and the “NAHA activity, 0 μM Ag+ = 100%” value ([13]; Ag+ 25 μM) was 63%. For the same compound, the “NAHA activity, 0 μM Ag+ = 100%” value ([13]; Ag+ 100 μM) was 114%, the “NAHA activity, 0 μM Ag+ = 100%” value ([13]; Ag+ 400 μM) was 57% and the “effect on the NAHA activity” value [14] was “no significant effect”. For the same compound, the “NAHA activity, control without Ag+ = 100%” value ([15]; Ag+ 10 μM) was 91%, the “NAHA activity, control without Ag+ = 100%” value ([15]; Ag+ 25 μM) was 74% and the “NAHA activity, control without Ag+ = 100%” value ([15]; Ag+ 100 μM) was 18%. The “NAHA activity, control without Ag+ = 100%” value ([15]; Ag+ 400 μM) was 11%, the “effect on the NAHA activity” value [16] was “no significant effect” and the “reduction of the fungal NAHA activity” value (fungal NAHA activity; 100 μM in the assay substrate) was “zero to very low reduction”. The “fungal NAHA activity retained” value (fungal NAHA activity; 400 μM) was “a high percentage”, the “inhibition of the fungal NAHA activity” value (fungal NAHA activity; inhibitor added to the fungal culture prior to the enzyme assay) was “complete inhibition” and the “NAHA activity, control without Ag+ = 100%” value ([17]; Ag+ 10 μM) was 35%. The “NAHA activity, control without Ag+ = 100%” value ([17]; Ag+ 25 μM) was 33%, the “NAHA activity, control without Ag+ = 100%” value ([17]; Ag+ 100 μM) was 25% and the “NAHA activity, control without Ag+ = 100%” value ([17]; Ag+ 400 μM) was 19%. For the same compound, the “NAHA activity, 0 μM Ag+ = 100%” value ([18]; Ag+ 10 μM) was 107%, the “NAHA activity, 0 μM Ag+ = 100%” value ([18]; Ag+ 25 μM) was 107% and the “NAHA activity, 0 μM Ag+ = 100%” value ([18]; Ag+ 100 μM) was 110%. The “NAHA activity, 0 μM Ag+ = 100%” value ([18]; Ag+ 400 μM) was 102%, the “NAHA activity, 0 μM Ag+ = 100%” value ([19]; Ag+ 10 μM) was 91% and the “NAHA activity, 0 μM Ag+ = 100%” value ([19]; Ag+ 25 μM) was 103%. The “NAHA activity, 0 μM Ag+ = 100%” value ([19]; Ag+ 100 μM) was 95%, the “NAHA activity, 0 μM Ag+ = 100%” value ([19]; Ag+ 400 μM) was 87% and the “NAHA activity, 0 μM Ag+ = 100%” value ([20]; Ag+ 10 μM) was 104%. The “NAHA activity, 0 μM Ag+ = 100%” value ([20]; Ag+ 25 μM) was 108%, the “NAHA activity, 0 μM Ag+ = 100%” value ([20]; Ag+ 100 μM) was 98% and the “NAHA activity, 0 μM Ag+ = 100%” value ([20]; Ag+ 400 μM) was 91%. For the same compound, the “NAHA activity, control without Ag+ = 100%” value ([21]; Ag+ 10 μM) was 96%, the “NAHA activity, control without Ag+ = 100%” value ([21]; Ag+ 25 μM) was 69% and the “NAHA activity, control without Ag+ = 100%” value ([21]; Ag+ 100 μM) was 6%. The “NAHA activity, control without Ag+ = 100%” value ([21]; Ag+ 400 μM) was 3%.

Reference: US20210115494A1, “Improved method for measurement of microbial biomass” (Mycometer A/S, priority 2018, published 2021)
